Laboratory results from ChEMBL document CHEMBL3885881, “DrugMatrix”.

Species: Rattus norvegicus
Assay: DrugMatrix - Regimen: Daily Repeat
Assay type: toxicity, organism-based, Sprague-Dawley
Set-up: regimen Daily Repeat, gender Male, age 6-8 weeks
Conditions: in vivo, po, route oral GAVAGE, vehicle .5 % CMC; for ABSOLUTE BASOPHIL / ABSOLUTE EOSINOPHIL / ABSOLUTE LYMPHOCYTE / ABSOLUTE MONOCYTE / ABSOLUTE SEGMENTED NEUTROPHIL / BASOPHIL / EOSINOPHIL / ERYTHROCYTE COUNT / HEMATOCRIT / HEMOGLOBIN / LEUKOCYTE COUNT / LYMPHOCYTE / MEAN CORPUSCULAR HEMOGLOBIN / MEAN CORPUSCULAR HEMOGLOBIN CONCENTRATION / MEAN CORPUSCULAR VOLUME / MONOCYTE / NEUTROPHIL / NUCLEATED RED BLOOD CELLS / PLATELET COUNT: tissue Blood
[1] = 500 mg/kg, 72 h, dose level High, time 3 day
[2] = 500 mg/kg, 72 h, tissue Plasma, dose level High, time 3 day
[3] = 500 mg/kg, 120 h, dose level High, time 5 day
[4] = 500 mg/kg, 120 h, tissue Plasma, dose level High, time 5 day

SMILES: OCCOCCN1CCN(C2=Nc3ccccc3Sc3ccccc32)CC1 [QUETIAPINE]
- URIC ACID (47 mg/kg, 120 h, tissue Plasma, dose level Low, time 5 day): 2.17 mg/dL
- ABSOLUTE BASOPHIL [1]: 0 CELLS/uL
- ABSOLUTE EOSINOPHIL [1]: 0 CELLS/uL
- ABSOLUTE LYMPHOCYTE [1]: 9655.67 CELLS/uL
- ABSOLUTE MONOCYTE [1]: 233.67 CELLS/uL
- ABSOLUTE SEGMENTED NEUTROPHIL [1]: 577.33 CELLS/uL
- BASOPHIL [1]: 0%
- EOSINOPHIL [1]: 0%
- ERYTHROCYTE COUNT [1]: 5.61 x10E6/uL
- HEMATOCRIT [1]: 34.93%
- HEMOGLOBIN [1]: 14.17 G/DL
- LEUKOCYTE COUNT [1]: 10.47 x10E3/uL
- LYMPHOCYTE [1]: 92.67%
- MEAN CORPUSCULAR HEMOGLOBIN [1]: 25.27 pg
- MEAN CORPUSCULAR HEMOGLOBIN CONCENTRATION [1]: 40.53 G/DL
- MEAN CORPUSCULAR VOLUME [1]: 62.27 fL
- MONOCYTE [1]: 2%
- NEUTROPHIL [1]: 5.33%
- NUCLEATED RED BLOOD CELLS [1]: 0 /100WBC
- PLATELET COUNT [1]: 1122.67 x10E3/uL
- ALANINE AMINOTRANSFERASE [2]: 50.33 u/L
- ALBUMIN [2]: 4.3 G/DL
- ASPARTATE AMINOTRANSFERASE [2]: 75 u/L
- BLOOD UREA NITROGEN [2]: 16.67 mg/dL
- CARBON DIOXIDE [2]: 26.33 mmol/L
- CHOLESTEROL [2]: 46.67 mg/dL
- CREATINE PHOSPHOKINASE [2]: 448 u/L
- CREATININE [2]: 0.21 mg/dL
- GLUCOSE [2]: 138 mg/dL
- LACTATE DEHYDROGENASE [2]: 232.33 u/L
- LIPASE [2]: 8 u/L
- POTASSIUM [2]: 6.14 MEQ/L
- SODIUM [2]: 143.73 MEQ/L
- TOTAL BILIRUBIN [2]: 0.23 mg/dL
- TOTAL PROTEIN [2]: 5.57 G/DL
- URIC ACID [2]: 1.33 mg/dL
- ABSOLUTE BASOPHIL [3]: 0 CELLS/uL
- ABSOLUTE EOSINOPHIL [3]: 0 CELLS/uL
- ABSOLUTE LYMPHOCYTE [3]: 15536 CELLS/uL
- ABSOLUTE MONOCYTE [3]: 318.67 CELLS/uL
- ABSOLUTE SEGMENTED NEUTROPHIL [3]: 1612 CELLS/uL
- BASOPHIL [3]: 0%
- EOSINOPHIL [3]: 0%
- ERYTHROCYTE COUNT [3]: 6.23 x10E6/uL
- HEMATOCRIT [3]: 37.83%
- HEMOGLOBIN [3]: 15.17 G/DL
- LEUKOCYTE COUNT [3]: 17.47 x10E3/uL
- LYMPHOCYTE [3]: 89%
- MEAN CORPUSCULAR HEMOGLOBIN [3]: 24.33 pg
- MEAN CORPUSCULAR HEMOGLOBIN CONCENTRATION [3]: 40.1 G/DL
- MEAN CORPUSCULAR VOLUME [3]: 60.67 fL
- MONOCYTE [3]: 1.67%
- NEUTROPHIL [3]: 9.33%
- NUCLEATED RED BLOOD CELLS [3]: 0 /100WBC
- PLATELET COUNT [3]: 1152.33 x10E3/uL
- ALANINE AMINOTRANSFERASE [4]: 50.33 u/L
- ALBUMIN [4]: 4.37 G/DL
- ASPARTATE AMINOTRANSFERASE [4]: 71 u/L
- BLOOD UREA NITROGEN [4]: 20 mg/dL
- CARBON DIOXIDE [4]: 25 mmol/L
- CHLORIDE [4]: 103 MEQ/L
- CHOLESTEROL [4]: 56.67 mg/dL
- CREATINE PHOSPHOKINASE [4]: 184.33 u/L
- CREATININE [4]: 0.29 mg/dL
- GLUCOSE [4]: 154 mg/dL
- LACTATE DEHYDROGENASE [4]: 150.67 u/L
- LIPASE [4]: 8.67 u/L
- POTASSIUM [4]: 6.89 MEQ/L
- SODIUM [4]: 145 MEQ/L
- TOTAL BILIRUBIN [4]: 0.2 mg/dL
- TOTAL PROTEIN [4]: 6.13 G/DL
- URIC ACID [4]: 2.13 mg/dL
